Measured values: patent publication US10933056B2, “3-(1H-pyrazol-4-yl)pyridine allosteric modulators of the M4 muscarinic acetylcholine receptor” (Merck Sharp & Dohme Corp., priority 2015, dated 2021)

Molecular target: T1, human M4 muscarinic acetylcholine receptor (Homo sapiens, UniProt P08173)
T1 construct: expressed in transfected cells; host or cells: CHO-K1
T1 sequence (P08173 1-479): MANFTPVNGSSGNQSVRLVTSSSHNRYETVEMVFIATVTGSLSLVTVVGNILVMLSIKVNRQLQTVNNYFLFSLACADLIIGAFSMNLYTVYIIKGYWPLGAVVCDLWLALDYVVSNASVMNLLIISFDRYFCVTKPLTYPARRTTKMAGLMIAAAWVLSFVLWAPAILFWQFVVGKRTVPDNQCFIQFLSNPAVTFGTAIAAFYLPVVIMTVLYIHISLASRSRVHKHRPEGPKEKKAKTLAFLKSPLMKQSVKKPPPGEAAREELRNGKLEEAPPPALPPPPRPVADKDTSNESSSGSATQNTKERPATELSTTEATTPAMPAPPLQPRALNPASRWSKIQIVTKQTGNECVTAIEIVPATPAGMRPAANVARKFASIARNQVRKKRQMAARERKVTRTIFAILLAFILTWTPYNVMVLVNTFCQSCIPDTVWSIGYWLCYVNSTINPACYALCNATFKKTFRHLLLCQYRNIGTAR
Assay: human FLIPR-based M4 PAM assay (calcium mobilization in CHO-K1 cells with human M4 receptor and Gαqi5)
Assay type: cell-based
Conditions: inflection point of dose response curve, acetylcholine at 20% of maximum response, FLIPR Tetra, read-out: M4 PAM IP
Experimental: (§1) In a typical experiment the M4 muscarinic acetylcholine receptor modulating activity of the compounds of the present invention was determined in accordance with the following experimental method. CHO-K1 cells stably transfected with human M4 receptor and chimeric G-protein Gαqi5 (Coward P, et al., Analytical Biochemistry, 270:242-248 (1999)) are thawed from liquid N2 storage, resuspended in growth medium, plated in black, clear bottom 384 well plates, and incubated 16-20 hours at 37° C., 5% CO2. On the day of assay, growth medium is removed, the cells are washed 2 times with wash buffer, and cells are incubated in dye loading buffer at 37° C., 5% CO2 for ˜1 hour. Following dye loading the cell plates are placed in a FLIPR Tetra instrument and while monitoring dye fluorescence (excitation […]), 10 uL of test substance at increasing concentrations is added, and fluorescence values are recorded for 4 min. Next, 10 uL of acetylcholine is added (final concentration calculated so as to achieve 20% of the maximum acetycholine response), and the fluorescence reading is continued for 3.5 min. In some cases, a third addition of acetylcholine (final concentration calculated to achieve 70% of the maximal acetylcholine response) is performed. The resulting dose response curves are fit to a 4 parameter logistic equation and the final result is determined as the inflection point (IP) of the curve
as §1, with “CHO-K1” for “In a typical experiment the M4 muscarinic acetylcholine receptor modulating activity of the compounds of the present invention was determined in accordance with the following experimental method. CHO-K1”, “Gαqi5” for “Gαqi5 (Coward P, et al., Analytical Biochemistry, 270:242-248 (1999))”, “performed.” for “performed. The resulting dose response curves are fit to a 4 parameter logistic equation and the final result is determined as the inflection point (IP) of the curve”

Row | SMILES | EC50 [nM]
1 | CN1Cc2ccc(-c3ncc(F)cc3-c3cnn(CC4(C)CCCC4)c3)cc2C1=O [Example 50, 6-(5-fluoro-3-(1-((1-methylcyclopentyl)methyl)-1H-pyrazol-4-yl)pyridin-2-yl)-2-methylisoindolin-1-one] | 38
2 | CN1Cc2ccc(-c3nc(C#N)c(N)cc3-c3cnn(CC4(C)CCCC4)c3)cc2C1=O [Example 51, 3-amino-6-(2-methyl-3-oxoisoindolin-5-yl)-5-(1-((1-methylcyclopentyl)methyl)-1H-pyrazol-4-yl)picolinonitrile] | 75
3 | CN1Cc2ccc(-c3nc(CF)ccc3-c3cnn(CC4(C)CCCC4)c3)cc2C1=O [Example 52, 6-(6-(fluoromethyl)-3-(1-((1-methylcyclopentyl)methyl)-1H-pyrazol-4-yl)pyridin-2-yl)-2-methylisoindolin-1-one] | 40
4 | Cc1cc(-c2cnn(CC3(C)CCCC3)c2)c(-c2ccc3c(c2)C(=O)N(C)C3)nc1F [Example 53, 6-(6-fluoro-5-methyl-3-(1-((1-methylcyclopentyl)methyl)-1H-pyrazol-4-yl)pyridin-2-yl)-2-methylisoindolin-1-one] | 61
5 | CN1Cc2ncc(-c3nc(C#N)ccc3-c3cnn(CC4(C)CCCC4)c3F)cc2C1=O [Example 54, 5-(5-fluoro-1-((1-methylcyclopentyl)methyl)-1H-pyrazol-4-yl)-6-(6-methyl-5-oxo-6,7-dihydro-5H-pyrrolo[3,4-b]pyridin-3-yl)picolinonitrile] | 8
6 | CC1(Cn2cc(-c3cc4c(nc3-c3ccc5c(c3)C(=O)NC5)CCC4)cn2)CCCC1 [Example 55, 6-(3-(1-((1-methylcyclopentyl)methyl)-1H-pyrazol-4-yl)-6,7-dihydro-5H-cyclopenta[b]pyridin-2-yl)isoindolin-1-one] | 38
7 | CC1(Cn2cc(-c3cc4c(nc3-c3ccc5c(c3)C(=O)N(CCC#N)C5)CCC4)cn2)CCCC1 [Example 56, 3-(6-(3-(1-((1-methylcyclopentyl)methyl)-1H-pyrazol-4-yl)-6,7-dihydro-5H-cyclopenta[b]pyridin-2-yl)-1-oxoisoindolin-2-yl)propanenitrile] | 72
8 | CN1Cc2ccc(-c3nc(F)ccc3-c3cnn(CC4(C)CCCC4)c3F)cc2C1=O [Example 57, 6-(6-fluoro-3-(5-fluoro-1-((1-methylcyclopentyl)methyl)-1H-pyrazol-4-yl)pyridin-2-yl)-2-methylisoindolin-1-one] | 44
9 | CN1Cc2ncc(-c3nc(CF)ccc3-c3cnn(CC4(C)CCCC4)c3)cc2C1=O [Example 58, 3-(6-(fluoromethyl)-3-(1-((1-methylcyclopentyl)methyl)-1H-pyrazol-4-yl)pyridin-2-yl)-6-methyl-6,7-dihydro-5H-pyrrolo[3,4-b]pyridin-5-one] | 35
10 | CN1Cc2ncc(-c3nc(F)ccc3-c3cnn(CC4(C)CCCC4)c3F)cc2C1=O [Example 59, 3-(6-fluoro-3-(5-fluoro-1-((1-methylcyclopentyl)methyl)-1H-pyrazol-4-yl)pyridin-2-yl)-6-methyl-6,7-dihydro-5H-pyrrolo[3,4-b]pyridin-5-one] | 14
11 | CN1C(=O)c2cc(-c3nc(C#N)ccc3-c3cnn(CC4(C)CCCC4)c3)ccc2C1(C)C [Example 60] | 99
12 | CN1Cc2ncc(-c3nc4c(cc3-c3cnn(CC5(C)CCCC5)c3)CCC4)cc2C1=O [Example 61, 6-methyl-3-(3-(1-((1-methylcyclopentyl)methyl)-1H-pyrazol-4-yl)-6,7-dihydro-5H-cyclopenta[b]pyridin-2-yl)-6,7-dihydro-5H-pyrrolo[3,4-b]pyridin-5-one] | 59
13 | Cc1cc(N)c(-c2cnn(CC3(C)CCCC3)c2)c(-c2ccc3c(c2)C(=O)N(C)C3)n1 [Example 62, 6-(4-amino-6-methyl-3-(1-((1-methylcyclopentyl)methyl)-1H-pyrazol-4-yl)pyridin-2-yl)-2-methylisoindolin-1-one] | 293
14 | CN1Cc2ccc(-c3nc(Cl)cc(N)c3-c3cnn(CC4(C)CCCC4)c3)cc2C1=O [Example 63, 6-(4-amino-6-chloro-3-(1-((1-methylcyclopentyl)methyl)-1H-pyrazol-4-yl)pyridin-2-yl)-2-methylisoindolin-1-one] | 489
15 | CC1(Cn2cc(-c3ccc(C#N)nc3-c3ccc4c(c3)C(=O)NC4(C)C)cn2)CCCC1 [Example 64, 6-(1,1-dimethyl-3-oxoisoindolin-5-yl)-5-(1-((1-methylcyclopentyl)methyl)-1H-pyrazol-4-yl)picolinonitrile] | 119
16 | Cc1ccc(-c2cnn(CC3(C)CCCC3)c2)c(-c2ccc3c(c2)C(=O)N(CC2CC2)C3)n1 [Example 65, 2-(cyclopropylmethyl)-6-(6-methyl-3-(1-((1-methylcyclopentyl)methyl)-1H-pyrazol-4-yl)pyridin-2-yl)isoindolin-1-one] | 136
17 | CC1(Cn2cc(-c3cc4c(nc3-c3cnc5c(c3)C(=O)N(CCF)C5)CCC4)cn2)CCCC1 [Example 66, 6-(2-fluoroethyl)-3-(3-(1-((1-methylcyclopentyl)methyl)-1H-pyrazol-4-yl)-6,7-dihydro-5H-cyclopenta[b]pyridin-2-yl)-6,7-dihydro-5H-pyrrolo[3,4-b]pyridin-5-one] | 39
18 | CN1Cc2ccc(-c3nc(CF)ccc3-c3cnn(CC4(C)CCCC4)c3F)cc2C1=O [Example 68, 6-(3-(5-fluoro-1-((1-methylcyclopentyl)methyl)-1H-pyrazol-4-yl)-6-(fluoromethyl)pyridin-2-yl)-2-methylisoindolin-1-one] | 23
19 | CC1(Cn2cc(-c3cc4c(nc3-c3cnc5c(c3)C(=O)N(CCC#N)C5)CCC4)cn2)CCCC1 [Example 69, 3-(3-(3-(1-((1-methylcyclopentyl)methyl)-1H-pyrazol-4-yl)-6,7-dihydro-5H-cyclopenta[b]pyridin-2-yl)-5-oxo-5,7-dihydro-6H-pyrrolo[3,4-b]pyridin-6-yl)propanenitrile] | 34
20 | COCCN1Cc2ncc(-c3nc4c(cc3-c3cnn(CC5(C)CCCC5)c3)CCC4)cc2C1=O [Example 70, 6-(2-methoxyethyl)-3-(3-(1-((1-methylcyclopentyl)methyl)-1H-pyrazol-4-yl)-6,7-dihydro-5H-cyclopenta[b]pyridin-2-yl)-6,7-dihydro-5H-pyrrolo[3,4-b]pyridin-5-one] | 47
21 | CN1C(=O)c2cc(-c3nc4c(cc3-c3cnn(CC5(C)CCCC5)c3)CCC4)cnc2C1(C)C [Example 71, 6,7,7-trimethyl-3-(3-(1-((1-methylcyclopentyl)methyl)-1H-pyrazol-4-yl)-6,7-dihydro-5H-cyclopenta[b]pyridin-2-yl)-6,7-dihydro-5H-pyrrolo[3,4-b]pyridin-5-one] | 35
22 | CN1C(=O)c2cc(-c3nc(C#N)ccc3-c3cnn(CC4(C)CCCC4)c3)ccc2C1(C)C [Example 72] | 41
23 | COCCN1Cc2ccc(-c3nc4c(cc3-c3cnn(CC5(C)CCCC5)c3)CCC4)cc2C1=O [Example 73, 2-(2-methoxyethyl)-6-(3-(1-((1-methylcyclopentyl)methyl)-1H-pyrazol-4-yl)-6,7-dihydro-5H-cyclopenta[b]pyridin-2-yl)isoindolin-1-one] | 52
24 | CN1Cc2ncc(-c3nc4c(cc3-c3cnn(CC5(C)CCCC5)c3F)CCC4)cc2C1=O [Example 74, 3-(3-(5-fluoro-1-((1-methylcyclopentyl)methyl)-1H-pyrazol-4-yl)-6,7-dihydro-5H-cyclopenta[b]pyridin-2-yl)-6-methyl-6,7-dihydro-5H-pyrrolo[3,4-b]pyridin-5-one] | 24
25 | Cc1cc(-c2cnn(CC3(C)CCCC3)c2F)c(-c2ccc3c(c2)C(=O)N(C)C3)nc1Cl [Example 75, 6-(6-chloro-3-(5-fluoro-1-((1-methylcyclopentyl)methyl)-1H-pyrazol-4-yl)-5-methylpyridin-2-yl)-2-methylisoindolin-1-one] | 80
